Experimental data reported in US12384779B2, “Bicyclic compounds” (Aligos Therapeutics, Inc., priority 2022, dated 2025).

Tests used:
HBV = test: HBV-DNA antiviral assay using HepG2.117 cells (intracellular HBV DNA by qPCR); format: cell-based, genotype D HBV; details: Hepatitis B virus, 72 h, HBV DNA inhibition, 3 days incubation
Protocol: (§1) The following assay procedure describes the HBV antiviral assay, using HepG2.117 cells, which carry a stably integrated genotype D HBV genome under the control of a Tet-off promoter, and intracellular HBV DNA quantification as endpoint. Cell viability is assessed in parallel by measuring the intracellular ATP content using CellTiter-Glo 2.0 (Promega).
(§2) On day 0, HepG2.117 cells (which are maintained in routine cell culture with doxycycline present in the medium at a final concentration of 1 μg/mL) are seeded in 96-well plates (white with clear bottom) at a density of 2.0×10^4 cells/well (0.1 mL/well) in medium without doxycycline to induce pgRNA transcription and subsequent formation of HBV particles. The cells are incubated at 37° C. and 5% CO2.
(§3) On day 1, medium is removed from each well, the test articles are diluted in culture medium without doxcycyline and 100 μL was added to cell culture wells (9 concentrations, 4-fold dilution). For each plate, 6 untreated (merely DMSO) wells are included. The final concentration of DMSO in the culture medium is 2%. Each plate is prepared in duplicate (one for HBV DNA extraction, one for CellTiter-Glo 2.0 measurement). The cells are incubated at 37° C. and 5% CO2 for 3 days.
(§4) On day 4, cell viability is assessed using CellTiter-Glo 2.0 and cell lysates are prepared for HBV DNA extraction and subsequent quantification by qPCR.
Medium is removed from each well and 100 μL of 0.33% NP-40 in H2O was added to each well. Plates are sealed, incubated at 4° C. for 5 mins, vortexed extensively and centrifuged briefly. Next, 35 μL of lysate is added to 65 μL QuickExtract DNA Extraction Solution (Epicentre) in a PCR plate for each well. PCR plate is incubated at 65° C. for 6 mins, 98° C. for 2 mins and finally cooled to 4° C. HBV DNA is then quantified by qPCR with HBV-specific primers and probes as specified in Table 2 using the Bio-Rad SSOAdvanced Universal Probes Supermix on a CFX96 machine (Bio-Rad). The PCR cycle program consisted of 95° C. for 3 mins, followed by 40 cycles at 95° C. for 10 sec and 60° C. for 30 sec.
A DNA standard is prepared by dilution of an IDT gBlock corresponding to the amplicon with concentrations ranging from 10^2 to 10^8 copies/input (i.e., per 4 μL) and used to generate a standard curve by plotting Cq values vs. HBV DNA standard concentration. The quantity of HBV DNA in each sample is determined by interpolating from the standard curve.
(§5) Cell viability is calculated as follows: % Cell viability=(luminescence value of test sample)/(average luminescence value of 2% DMSO control)×100%. HBV DNA inhibition was calculated as follows: 100−(HBV DNA copy number of test sample)/(average HBV DNA copy number of 2% DMSO control)×100%. No normalization to entecavir is required due to the excellent dynamic window of this assay. The CC50, EC50 and EC90 values were determined by dose-response curves fitted using non-linear regression.

[1] = Cell viability by CellTiter-Glo 2.0 (intracellular ATP) in HepG2.117 cells; format: cell-based; details: human, CellTiter-Glo 2.0, 3 days incubation
Protocol: as §1, §2, §3, §4
Using the other plates, the cell viability is quantified by CellTiter-Glo 2.0 according to the manufacturer's manual. In brief, 100 μL of reagent solution is added to the culture plates and shaken for 2′. The plates are incubated at rt for 10 min and luminescence signal is subsequently measured on a VarioSkan Lux (ThermoFisher) plate reader.
as §5

Row | Compound | EC50 (HBV) [nM] | CC50 at 3 days [1] [nM]
1 | CNC(=O)c1ccc(-n2c(-n3nc(C#N)cc3C)nc3c(c2=O)C[C@@H](C)N(C(=O)c2ccc(Br)c(C(F)(F)F)c2)C3)cc1 [Compound 1, (R)-4-(7-(4-bromo-3-(trifluoromethyl)benzoyl)-2-(3-cyano-5-methyl-1H-pyrazol-1-yl)-6-methyl-4-oxo-5,6,7,8-tetrahydropyrido[3,4-d]pyrimidin-3(4H)-yl)-N-methylbenzamide] | ≤ 50 | > 50000
2 | CNC(=O)c1ccc(-n2c(-n3nc(C)cc3C#N)nc3c(c2=O)C[C@@H](C)N(C(=O)c2ccc(Br)c(C(F)(F)F)c2)C3)cc1 [Compound 2, (R)-4-(7-(4-bromo-3-(trifluoromethyl)benzoyl)-2-(5-cyano-3-methyl-1H-pyrazol-1-yl)-6-methyl-4-oxo-5,6,7,8-tetrahydropyrido[3,4-d]pyrimidin-3(4H)-yl)-N-methylbenzamide] | ≤ 50 | 29200
3 | CNC(=O)c1ccc(-n2c(-n3nc(C4CC4)cc3C)nc3c(c2=O)C[C@@H](C)N(C(=O)c2ccc(Br)c(C(F)(F)F)c2)C3)cc1 [Compound 3, (R)-4-(7-(4-bromo-3-(trifluoromethyl)benzoyl)-2-(3-cyclopropyl-5-methyl-1H-pyrazol-1-yl)-6-methyl-4-oxo-5,6,7,8-tetrahydropyrido[3,4-d]pyrimidin-3(4H)-yl)-N-methylbenzamide] | ≤ 50 | > 50000
4 | CCc1cc(CC)n(-c2nc3c(c(=O)n2-c2ccc(C(=O)NC)cc2)C[C@@H](C)N(C(=O)c2ccc(Br)c(C(F)(F)F)c2)C3)n1 [Compound 4] | ≤ 50 | > 50000
5 | CNC(=O)c1ccc(-n2c(-n3nc(C(F)(F)F)cc3C)nc3c(c2=O)C[C@@H](C)N(C(=O)c2ccc(Br)c(C(F)(F)F)c2)C3)cc1 [Compound 5] | ≤ 50 | > 500
6 | CNC(=O)c1ccc(-n2c(-n3nc(C(C)(C)C)cc3C)nc3c(c2=O)C[C@@H](C)N(C(=O)c2ccc(Br)c(C(F)(F)F)c2)C3)cc1 [Compound 6] | ≤ 50 | 41800
7 | CNC(=O)c1ccc(-n2c(-n3nc(C(C)C)cc3C)nc3c(c2=O)C[C@@H](C)N(C(=O)c2ccc(Br)c(C(F)(F)F)c2)C3)cc1 [Compound 7] | ≤ 50 | > 50000
8 | CNC(=O)c1ccc(-n2c(-n3nc(C)cc3C(C)C)nc3c(c2=O)C[C@@H](C)N(C(=O)c2ccc(Br)c(C(F)(F)F)c2)C3)cc1 [Compound 8] | ≤ 50 | > 50000
9 | CNC(=O)c1ccc(-n2c(-n3nc(C)c(C)c3C)nc3c(c2=O)C[C@@H](C)N(C(=O)c2ccc(Br)c(C(F)(F)F)c2)C3)cc1 [Compound 9] | 50 to 500 | > 5000
10 | CNC(=O)c1ccc(-n2c(-n3cc4c(n3)CCCC4)nc3c(c2=O)C[C@@H](C)N(C(=O)c2ccc(Br)c(C(F)(F)F)c2)C3)cc1 [Compound 10] | ≤ 50 | > 50000
11 | CNC(=O)c1ccc(-n2c(-n3nc(C(=O)N(C)C)cc3C)nc3c(c2=O)C[C@@H](C)N(C(=O)c2ccc(Br)c(C(F)(F)F)c2)C3)cc1 [Compound 11] | 50 to 500 | > 50000
12 | [2H]c1c(C)nn(-c2nc3c(c(=O)n2-c2ccc(C(=O)NC)cc2)C[C@@H](C)N(C(=O)c2ccc(Br)c(C(F)(F)F)c2)C3)c1C [Compound 12] | ≤ 50 | > 50000
